{"source": "patent US10087178B2", "about": "“Substituted spiropyrido[1,2-a]pyrazine derivative and medicinal use thereof as HIV integrase inhibitor” (priority 2012, dated 2018)", "test_system": "HIV-1 NL4-3 strain", "assay": "Evaluation of antiviral activity: acute infection system of MT-4 cell with HIV-1 NL4-3 strain", "assay_type": "cell-based", "conditions": "Human immunodeficiency virus 1, NL43, MT4, 120 h", "key": {"[1]": {"conditions": "read-out: antiviral activity (EC50), MT-4 cells infected with HIV-1 NL4-3 strain (MOI 0.05), cultured 5 days, Cell Titer-Glo"}, "[2]": {"conditions": "MT-4 cells infected with HIV-1 NL4-3 strain (MOI 0.05), cultured 5 days, Cell Titer-Glo, read-out: antiviral activity (EC50)"}}, "note": "Structures can show the parent of a compound that is named as a salt. Where two headings read alike, the source gives them in different places.", "data": [{"smiles": "CN1C[C@@]2(C[C@@H]2CO)n2cc(C(=O)NCc3ccc(F)cc3F)c(=O)c(O)c2C1=O", "note": "[Example T4, (1S,2S)-N-(2,4-difluorobenzyl)-9′-hydroxy-2-(hydroxymethyl)-2′-methyl-1′,8′-dioxo-1′,2′,3′,8′-tetrahydrospiro[cyclopropane-1,4′-pyrido[1,2-a]pyrazine]-7′-carboxamide hydrochloride]", "values": [{"measurement": "EC50", "setting": "[1]", "result": 30, "unit": "nM"}]}, {"smiles": "CC(C)N1C[C@]2(C[C@H]2CO)n2cc(C(=O)NCc3cccc(Cl)c3F)c(=O)c(O)c2C1=O", "note": "[Example T5, (1R,2R)-N-(3-chloro-2-fluorobenzyl)-9′-hydroxy-2-(hydroxymethyl)-2′-isopropyl-1′,8′-dioxo-1′,2′,3′,8′-tetrahydrospiro[cyclopropane-1,4′-pyrido[1,2-a]pyrazine]-7′-carboxamide hydrochloride]", "values": [{"measurement": "EC50", "setting": "[1]", "result": 4, "unit": "nM"}]}, {"smiles": "COC[C@@H]1C[C@]12CN(C(C)C)C(=O)c1c(O)c(=O)c(C(=O)NCc3cccc(Cl)c3F)cn12", "note": "[Example T6, (1R,2R)-N-(3-chloro-2-fluorobenzyl)-9′-hydroxy-2′-isopropyl-2-(methoxymethyl)-1′,8′-dioxo-1′,2′,3′,8′-tetrahydrospiro[cyclopropane-1,4′-pyrido[1,2-a]pyrazine]-7′-carboxamide hydrochloride]", "values": [{"measurement": "EC50", "setting": "[1]", "result": 3.8, "unit": "nM"}]}, {"smiles": "CCN1C[C@@]2(C[C@@H]2C(=O)O)n2cc(C(=O)NCc3ccc(F)cc3F)c(=O)c(O)c2C1=O", "note": "[Example T7, (1S,2S)-7′-(2,4-difluorobenzylcarbamoyl)-2′-ethyl-9′-hydroxy-1′,8′-dioxo-1′,2′,3′,8′-tetrahydrospiro[cyclopropane-1,4′-pyrido[1,2-a]pyrazine]-2-carboxylic acid hydrochloride]", "values": [{"measurement": "EC50", "setting": "[2]", "result": 15, "unit": "nM"}]}, {"smiles": "CCN1C[C@@]2(C[C@@H]2C(=O)NC)n2cc(C(=O)NCc3ccc(F)cc3F)c(=O)c(O)c2C1=O", "note": "[Example T8, (1S,2S)-N^7′-(2,4-difluorobenzyl)-2′-ethyl-9′-hydroxy-N^2-methyl-1′,8′-dioxo-1′,2′,3′,8′-tetrahydrospiro[cylcopropane-1,4′-pyrido[1,2-a]pyrazine]-2,7′-dicarboxamide hydrochloride]", "values": [{"measurement": "EC50", "setting": "[2]", "result": 6.1, "unit": "nM"}]}, {"smiles": "CCN1C[C@]2(C[C@H]2COC)n2cc(C(=O)NCc3ccc(F)cc3F)c(=O)c(O)c2C1=O", "note": "[Example T9, (1R,2R)-N-(2,4-difluorobenzyl)-2′-ethyl-9′-hydroxy-2-(methoxymethyl)-1′,8′-dioxo-1′,2′,3′,8′-tetrahydrospiro[cyclopropane-1,4′-pyrido[1,2-a]pyrazine]-7′-carboxamide hydrochloride]", "values": [{"measurement": "EC50", "setting": "[1]", "result": 5.8, "unit": "nM"}]}, {"smiles": "CCN1C[C@]2(C[C@H]2CO)n2cc(C(=O)NCc3ccc(F)cc3F)c(=O)c(O)c2C1=O", "note": "[Example T10, (1R,2R)-N-(2,4-difluorobenzyl)-2′-ethyl-9′-hydroxy-2-(hydroxymethyl)-1′,8′-dioxo-1′,2′,3′,8′-tetrahydrospiro[cyclopropane-1,4′-pyrido[1,2-a]pyrazine]-7′-carboxamide hydrochloride]", "values": [{"measurement": "EC50", "setting": "[1]", "result": 16, "unit": "nM"}]}, {"smiles": "CC(C)N1C[C@@]2(C[C@@H]2CO)n2cc(C(=O)NCc3cccc(Cl)c3F)c(=O)c(O)c2C1=O", "note": "[Example T11, (1S,2S)-N-(3-chloro-2-fluorobenzyl)-9′-hydroxy-2-(hydroxymethyl)-2′-isopropyl-1′,8′-dioxo-1′,2′,3′,8′-tetrahydrospiro[cyclopropane-1,4′-pyrido[1,2-a]pyrazine]-7′-carboxamide hydrochloride]", "values": [{"measurement": "EC50", "setting": "[1]", "result": 6, "unit": "nM"}]}, {"smiles": "COC[C@H]1C[C@@]12CN(C(C)C)C(=O)c1c(O)c(=O)c(C(=O)NCc3cccc(Cl)c3F)cn12", "note": "[Example T12, (1S,2S)-N-(3-chloro-2-fluorobenzyl)-9′-hydroxy-2′-isopropyl-2-(methoxymethyl)-1′,8′-dioxo-1′,2′,3′,8′-tetrahydrospiro[cylcopropane-1,4′-pyrido[1,2-a]pyrazine]-7′-carboxamide hydrochloride]", "values": [{"measurement": "EC50", "setting": "[2]", "result": 5.7, "unit": "nM"}]}, {"smiles": "CC(C)N1C[C@@]2(C[C@@H]2C(=O)N(C)C)n2cc(C(=O)NCc3cccc(Cl)c3F)c(=O)c(O)c2C1=O", "note": "[Example T13, (1S,2S)-N^7′-(3-chloro-2-fluorobenzyl)-9′-hydroxy-2′-isopropyl-N^2,N^2-dimethyl-1′,8′-dioxo-1′,2′,3′,8′-tetrahydrospiro[cyclopropane-1,4′-pyrido[1,2-a]pyrazine]-2,7′-dicarboxamide hydrochloride]", "values": [{"measurement": "EC50", "setting": "[1]", "result": 3.4, "unit": "nM"}]}, {"smiles": "CC(C)N1C[C@]2(C[C@H]2C(=O)N(C)C)n2cc(C(=O)NCc3cccc(Cl)c3F)c(=O)c(O)c2C1=O", "note": "[Example T14, (1R,2R)-N^7′-(3-chloro-2-fluorobenzyl)-9′-hydroxy-2′-isopropyl-N^2,N^2-dimethyl-1′,8′-dioxo-1′,2′,3′,8′-tetrahydrospiro[cyclopropane-1,4′ -pyrido[1,2-a]pyrazine]-2,7′-dicarboxamide hydrochloride]", "values": [{"measurement": "EC50", "setting": "[1]", "result": 4.8, "unit": "nM"}]}, {"smiles": "CN1C[C@@]2(C[C@@H]2CO)n2cc(C(=O)NCc3cccc(Cl)c3F)c(=O)c(O)c2C1=O", "note": "[Example T15, (1S,2S)-N-(3-chloro-2-fluorobenzyl)-9′-hydroxy-2-(hydroxymethyl)-2′-methyl-1′,8′-dioxo-1′,2′,3′,8′-tetrahydrospiro[cyclopropane-1,4′-pyrido[1,2-a]pyrazine]-7′-carboxamide hydrochloride]", "values": [{"measurement": "EC50", "setting": "[1]", "result": 20, "unit": "nM"}]}, {"smiles": "COC[C@H]1C[C@@]12CN(C)C(=O)c1c(O)c(=O)c(C(=O)NCc3cccc(Cl)c3F)cn12", "note": "[Example T16, (1S.2S)-N-(3-chloro-2-fluorobenzyl)-9′-hydroxy-2-(methoxymethyl)-2′-methyl-1′,8′-dioxo-1′,2′,3′,8′-tetrahydrospiro[cyclopropane-1,4′-pyrido[1,2-a]pyrazine]-7′-carboxamide hydrochloride]", "values": [{"measurement": "EC50", "setting": "[2]", "result": 4.2, "unit": "nM"}]}, {"smiles": "CCN1C[C@]2(C[C@H]2CO)n2cc(C(=O)NCc3cccc(Cl)c3F)c(=O)c(O)c2C1=O", "note": "[Example T17, (1R,2R)-N-(3-chloro-2-fluorobenzyl)-2′-ethyl-9′-hydroxy-2-(hydroxymethyl)-1′,8′-dioxo-1′,2′,3′,8′-tetrahydrospiro[cyclopropane-1,4′-pyrido[1,2-a]pyrazine]-7′-carboxamide hydrochloride]", "values": [{"measurement": "EC50", "setting": "[1]", "result": 5.7, "unit": "nM"}]}, {"smiles": "CCN1C[C@@]2(C[C@@H]2CO)n2cc(C(=O)NCc3cccc(Cl)c3F)c(=O)c(O)c2C1=O", "note": "[Example T18, (1S,2S)-N-(3-chloro-2-fluorobenzyl)-2′-ethyl-9′-hydroxy-2-(hydroxymethyl)-1′,8′-dioxo-1′,2′,3′,8′-tetrahydrospiro[cyclopropane-1,4′-pyrido[1,2-a]pyrazine]-7′-carboxamide hydrochloride]", "values": [{"measurement": "EC50", "setting": "[1]", "result": 10, "unit": "nM"}]}, {"smiles": "CCN1C[C@@]2(C[C@@H]2COC)n2cc(C(=O)NCc3cccc(Cl)c3F)c(=O)c(O)c2C1=O", "note": "[Example T19, (1S,2S)-N-(3-chloro-2-fluorobenzyl)-2′-ethyl-9′-hydroxy-2-(methoxymethyl)-1′,8′-dioxo-1′,2′,3′,8′-tetrahydrospiro[cyclopropane-1,4′-pyrido[1,2-a]pyrazine]-7′-carboxamide]", "values": [{"measurement": "EC50", "setting": "[2]", "result": 3.8, "unit": "nM"}]}, {"smiles": "CCN1C[C@]2(C[C@H]2COC)n2cc(C(=O)NCc3cccc(Cl)c3F)c(=O)c(O)c2C1=O", "note": "[Example T20, (1R,2R)-N-(3-chloro-2-fluorobenzyl)-2′-ethyl-9′-hydroxy-2-(methoxymethyl)-1′,8′-dioxo-1′,2′,3′,8′-tetrahydrospiro[cyclopropane-1,4′-pyrido[1,2-a]pyrazine]-7′-carboxamide hydrochloride]", "values": [{"measurement": "EC50", "setting": "[1]", "result": 3.5, "unit": "nM"}]}, {"smiles": "COC[C@H]1C[C@@]12CN(C)C(=O)c1c(O)c(=O)c(C(=O)NCc3cc(OC)cc(Cl)c3F)cn12", "note": "[Example T21, (1S,2S)-N-(3-chloro-2-fluoro-5-methoxybenzyl)-9′-hydroxy-2-(methoxymethyl)-2′-methyl-1′,8′-dioxo-1′,2′,3′,8′-tetrahydrospiro[cyclopropane-1,4′-pyrido[1,2-a]pyrazine]-7′-carboxamide]", "values": [{"measurement": "EC50", "setting": "[2]", "result": 6.1, "unit": "nM"}]}, {"smiles": "COC[C@H]1C[C@@]12CN(C)C(=O)c1c(O)c(=O)c(C(=O)NCc3ccc(OC)c(Cl)c3F)cn12", "note": "[Example T22, (1S,2S)-N-(3-chloro-2-fluoro-4-methoxybenzyl)-9′-hydroxy-2-(methoxymethyl)-2′-methyl-1′,8′-dioxo-1′,2′,3′,8′-tetrahydrospiro[cyclopropane-1,4′-pyrido[1,2-a]pyrazine]-7′-carboxamide hydrochloride]", "values": [{"measurement": "EC50", "setting": "[1]", "result": 4.9, "unit": "nM"}]}, {"smiles": "CN1C[C@]2(C[C@H]2CO)n2cc(C(=O)NCc3cccc(Cl)c3F)c(=O)c(O)c2C1=O", "note": "[Example T23, (1R,2R)-N-(3-chloro-2-fluorobenzyl)-9′-hydroxy-2-(hydroxymethyl)-2′-methyl-1′,8′-dioxo-1′,2′,3′,8′-tetrahydrospiro[cyclopropane-1,4′-pyrido[1,2-a]pyrazine]-7′-carboxamide hydrochloride]", "values": [{"measurement": "EC50", "setting": "[1]", "result": 9.6, "unit": "nM"}]}, {"smiles": "COC[C@@H]1C[C@]12CN(C)C(=O)c1c(O)c(=O)c(C(=O)NCc3cccc(Cl)c3F)cn12", "note": "[Example T24, (1R,2R)-N-(3-chloro-2-fluorobenzyl)-9′-hydroxy-2-(methoxymethyl)-2′-methyl-1′,8′-dioxo-1′,2′,3′,8′-tetrahydrospiro[cyclopropane-1,4-pyrido[1,2-a]pyrazine]-7′-carboxamide hydrochloride]", "values": [{"measurement": "EC50", "setting": "[1]", "result": 3.2, "unit": "nM"}]}, {"smiles": "CCOc1cc(Cl)c(F)c(CNC(=O)c2cn3c(c(O)c2=O)C(=O)N(C)C[C@@]32C[C@@H]2COC)c1", "note": "[Example T25, (1S,2S)-N-(3-chloro-5-ethoxy-2-fluorobenzyl)-9′-hydroxy-2-(methoxymethyl)-2′-methyl-1′,8′-dioxo-1′,2′,3′,8′-tetrahydrospiro[cyclopropane-1,4′-pyrido[1,2-a]pyrazine]-7′-carboxamide hydrochloride]", "values": [{"measurement": "EC50", "setting": "[1]", "result": 7, "unit": "nM"}]}, {"smiles": "COC[C@H]1C[C@@]12CN(C)C(=O)c1c(O)c(=O)c(C(=O)NCc3cc(OC(C)C)cc(Cl)c3F)cn12", "note": "[Example T26, (1S,2S)-N-(3-chloro-2-fluoro-5-isopropoxybenzyl)-9′-hydroxy-2-(methoxymethyl)-2′-methyl-1′,8′-dioxo-1′,2′,3′,8′-tetrahydrospiro[cyclopropane-1,4′-pyrido[1,2-a]pyrazine]-7′-carboxamide hydrochloride]", "values": [{"measurement": "EC50", "setting": "[1]", "result": 15, "unit": "nM"}]}]}
